Assay results published in ChEMBL document CHEMBL5661975, “Discovery and pharmacologic characterization of CP-724,714, a selective ErbB2 tyrosine kinase inhibitor” (Cancer Res, 2007).
pIC50: −log10 of the molar value. Active and inactive are the calls of the source. The calls are words filed in the database; no cut-off is given here.

Assays:
UACC-812 = test: Antiproliferative activity against human UACC-812 cells assessed as inhibition of cell growth; assay type: functional, cell-based
MDA-MB-361 = test: Antiproliferative activity against human MDA-MB-361 cells assessed as inhibition of cell growth; assay type: functional, cell-based
[1] = Toxicity in human erbB2 transfected FRE cells xenografted bearing female athymic nu-nu CD-1 mouse assessed as body weight loss at 50 mg/kg, po QD administrated for 8 to 40 days; assay type: organism-based; details: in vivo, time 8-40 day
FRE [2] = test: Antitumor activity against human erbB2 transfected FRE cells xenografted bearing female athymic nu-nu CD-1 mouse assessed as increase in cleaved caspase-3 cells at 100 mg/kg, po administration and measured at 8 hrs by immunohistochemical analysis; assay type: functional, organism-based
[3] = target: Receptor tyrosine-protein kinase erbB-2 (Homo sapiens, UniProt P04626); test: Inhibition of human erbB2 intracellular domain transfected in mouse NIH3T3 cells assessed as potency reduction in autophosphorylation of the chimera erbB2 incubated for 2 hrs in the presence of EGF stimulation by westernblot analysis; assay type: cell-based
Sequence of Receptor tyrosine-protein kinase erbB-2 (P04626 whole entry, the tested form may be a part): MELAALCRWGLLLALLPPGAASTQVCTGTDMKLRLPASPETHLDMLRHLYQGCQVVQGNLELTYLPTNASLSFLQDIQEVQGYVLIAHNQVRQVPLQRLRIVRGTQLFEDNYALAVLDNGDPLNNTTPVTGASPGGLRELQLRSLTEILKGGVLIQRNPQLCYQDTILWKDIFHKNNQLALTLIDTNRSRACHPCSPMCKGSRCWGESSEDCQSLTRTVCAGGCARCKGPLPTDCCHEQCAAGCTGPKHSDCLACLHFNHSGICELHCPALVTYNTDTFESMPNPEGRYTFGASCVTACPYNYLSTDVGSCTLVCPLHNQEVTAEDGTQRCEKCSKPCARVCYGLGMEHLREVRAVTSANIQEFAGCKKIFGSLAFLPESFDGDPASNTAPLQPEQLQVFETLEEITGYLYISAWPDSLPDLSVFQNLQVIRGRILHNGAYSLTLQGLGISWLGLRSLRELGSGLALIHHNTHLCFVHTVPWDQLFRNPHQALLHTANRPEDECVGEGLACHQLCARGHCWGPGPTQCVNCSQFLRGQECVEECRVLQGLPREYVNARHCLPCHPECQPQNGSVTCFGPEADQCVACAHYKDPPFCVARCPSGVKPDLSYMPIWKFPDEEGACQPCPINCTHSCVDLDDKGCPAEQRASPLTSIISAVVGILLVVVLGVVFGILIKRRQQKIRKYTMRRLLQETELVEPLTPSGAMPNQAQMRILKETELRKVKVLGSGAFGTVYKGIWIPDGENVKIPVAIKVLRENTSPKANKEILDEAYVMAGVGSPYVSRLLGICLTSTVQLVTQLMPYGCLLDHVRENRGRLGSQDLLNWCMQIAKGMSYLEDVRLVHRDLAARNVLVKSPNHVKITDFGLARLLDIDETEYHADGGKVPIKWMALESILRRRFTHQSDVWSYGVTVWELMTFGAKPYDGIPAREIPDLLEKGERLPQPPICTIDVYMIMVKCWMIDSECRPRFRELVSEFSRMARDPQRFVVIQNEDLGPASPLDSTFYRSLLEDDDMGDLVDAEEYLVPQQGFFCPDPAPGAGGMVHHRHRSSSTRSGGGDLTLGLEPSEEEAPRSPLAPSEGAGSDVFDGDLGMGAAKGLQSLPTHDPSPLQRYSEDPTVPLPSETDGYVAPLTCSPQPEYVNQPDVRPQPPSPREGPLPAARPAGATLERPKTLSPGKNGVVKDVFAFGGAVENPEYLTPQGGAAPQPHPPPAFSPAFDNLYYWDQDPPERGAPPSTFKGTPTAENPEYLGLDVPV

BT-474 [4] = test: Antitumor activity against human BT-474 high expressing erbB2 cells xenografted bearing female athymic nu-nu CD-1 mouse assessed as reduction in tumor phospho-Akt level at 100 mg/kg, po after 0.5 hrs administration by western blot analysis relative to control; assay type: functional; set-up: scale not given: the % may be the effect or the level left
BT-474 [5] = test: Induction of cell cycle arrest in Her2-amplified human BT-474 cells overexpressing erbB2 assessed as reduction in S phase at 1 micromol/L incubated for 24 hrs by flow cytometry analysis relative to control; assay type: functional; set-up: scale not given: the % may be the effect or the level left; details: dose 1 µmol/L, at 1 µM
BT-474 [6] = test: Antitumor activity against human BT-474 expressing erbB2 cells xenografted bearing female athymic nu-nu CD-1 mouse assessed as decrease in tumor growth at 30 mg/kg, po bid administration and measured at 14 day; assay type: functional, organism-based
[7] = Cmax in human erbB2 transfected FRE cells xenografted bearing female athymic nu-nu CD-1 mouse at 50 mg/kg, po QD administrated for 8 to 40 days by liquid chromatography-tandem mass spectrometry analysis; assay type: ADME, organism-based; details: in vivo, time 8-40 day
[8] = Antitumor activity against human erbB2 transfected FRE cells xenografted bearing female athymic nu-nu CD-1 mouse assessed as apoptotic changes at 100 mg/kg, po administration and measured at 8 hrs by H&E staining method relative to control; assay type: functional
[9] = Plasma concentration in human erbB2 transfected FRE cells xenografted bearing female athymic nu-nu CD-1 mouse at 25 mg/kg, po measured at 30 mins by liquid chromatography-tandem mass spectrometry analysis; assay type: ADME, organism-based
ZR-75-30 = test: Antiproliferative activity against human ZR-75-30 cells assessed as inhibition of cell growth; assay type: functional, cell-based
[10] = Antitumor activity against human erbB2 transfected FRE cells xenografted bearing female athymic nu-nu CD-1 mouse assessed as inhibition in tumor growth at 50 mg/kg, po QD administrated for 8 to 40 days relative to control; assay type: functional; details: time 8-40 day
[11] = Antiproliferative activity against human SUM225CWN cells assessed as inhibition of cell growth; assay type: functional, cell-based
BT-474 [12] = test: Antitumor activity against human BT-474 expressing erbB2 cells xenografted bearing female athymic nu-nu CD-1 mouse assessed as inhibition in tumor growth at 1 mg/kg, po bid administration and measured at 40 day relative to control; assay type: functional; details: BT-474, 960 h
BT-474 [13] = test: Antitumor activity against human BT-474 expressing erbB2 cells xenografted bearing female athymic nu-nu CD-1 mouse assessed as inhibition in tumor growth at 10 mg/kg, po bid administration and measured at 40 day relative to control; assay type: functional; details: BT-474, 960 h
SK-BR-3 = test: Inhibition of colony formation in human SK-BR-3 cells overexpressing erbB2 assessed as decrease in colony formation at 3 micromol/L by methanolic crystal violet staining relative to control; assay type: functional; details: dose 3 µmol/L
BT-474 [14] = test: Antitumor activity against human BT-474 high expressing erbB2 cells xenografted bearing female athymic nu-nu CD-1 mouse assessed as inhibition in tumor growth at 100 mg/kg, po bid administrated for 8 to 40 days relative to control; assay type: functional; details: time 8-40 day
BT-474 [15] = test: Antitumor activity against human BT-474 expressing erbB2 cells xenografted bearing female athymic nu-nu CD-1 mouse assessed as tumor regrowth at 30 mg/kg, po bid administration and measured at 40 day; assay type: functional, organism-based
BT-474 [16] = test: Antitumor activity against human BT-474 expressing erbB2 cells xenografted bearing female athymic nu-nu CD-1 mouse assessed as inhibition in tumor growth at 30 mg/kg, po bid administration and measured at 40 day relative to control; assay type: functional; details: BT-474, 960 h
CAMA-1 = test: Antiproliferative activity against human CAMA-1 cells assessed as inhibition of cell growth; assay type: functional, cell-based
T47D = test: Antiproliferative activity against human T47D cells assessed as inhibition of cell growth; assay type: functional, cell-based
LoVo = test: Antitumor activity against human LoVo low expressing erbB2 cells xenografted bearing female athymic nu-nu CD-1 mouse assessed as inhibition in tumor growth at 100 mg/kg, po bid administrated for 14 to 31 days relative to control; assay type: functional; details: time 14-31 day
MDA-MB-157 = test: Antiproliferative activity against human MDA-MB-157 cells assessed as inhibition of cell growth; assay type: functional, cell-based
BT-474 [17] = test: Antitumor activity against human BT-474 expressing erbB2 cells xenografted bearing female athymic nu-nu CD-1 mouse assessed as reduction in tumor erbB2 receptor phosphorylation at 100 mg/kg, po bid administration and measured at 40 day by ELISA method relative to control; assay type: functional; set-up: scale not given: the % may be the effect or the level left
BT-474 [18] = test: Antitumor activity against human BT-474 expressing erbB2 cells xenografted bearing female athymic nu-nu CD-1 mouse assessed as tumor regression at 100 mg/kg, po bid administration and measured at 40 day relative to control; assay type: functional
MDA-MB-453 [19] = test: Antitumor activity against human MDA-MB-453 expressing erbB2 cells xenografted bearing female athymic nu-nu CD-1 mouse assessed as reduction in tumor erbB2 phosphorylation at 100 mg/kg, po bid administration and measured at 29 day by ELISA method relative to control; assay type: functional; set-up: scale not given: the % may be the effect or the level left
MDA-MB-231 = test: Antitumor activity against human MDA-MB-231 low expressing erbB2 cells xenografted bearing female athymic nu-nu CD-1 mouse assessed as inhibition in tumor growth at 100 mg/kg, po bid administrated for 14 to 31 days relative to control; assay type: functional; details: time 14-31 day
COLO 205 = test: Antitumor activity against human COLO 205 low expressing erbB2 cells xenografted bearing female athymic nu-nu CD-1 mouse assessed as inhibition in tumor growth at 100 mg/kg, po bid administrated for 14 to 31 days relative to control; assay type: functional; details: time 14-31 day
MDA-MB-453 [20] = test: Antitumor activity against human MDA-MB-453 expressing erbB2 cells xenografted bearing female athymic nu-nu CD-1 mouse assessed as inhibition in tumor growth at 100 mg/kg, po bid administration and measured at 29 day relative to control; assay type: functional; details: MDA-MB-453, 696 h
FRE [21] = test: Antitumor activity against human erbB2 transfected FRE cells xenografted bearing female athymic nu-nu CD-1 mouse assessed as inhibition in tumor volume at 6.25 to 100 mg/kg, po QD administrated for 8 to 40 days; assay type: functional, organism-based; details: dose 6.25-100 mg/kg, time 8-40 day
[22] = Antiproliferative activity against human EFM-192A cells assessed as inhibition of cell growth; assay type: functional, cell-based

## COCC(=O)NC/C=C/c1ccc2ncnc(Nc3ccc(Oc4ccc(C)nc4)c(C)c3)c2c1 [CP-724714]
UACC-812
  pIC50: 5.72
MDA-MB-361
  pIC50: 5.43
[1]
  Activity: Non-Toxic
FRE [2]
  Activity: Active
[3]
  pIC50: 7.49
BT-474 [4]
  Activity: 70%
BT-474 [5]
  Activity: 3.2%
BT-474 [6]
  Activity: Active
[7]
  Cmax: 4500 ng/mL
[8]
  Activity: 75%
[9]
  concentration at 0.5 h: ~12500 ng/mL
ZR-75-30
  pIC50: 5.82
[10]
  inhibition in vivo at 50 mg/kg: ~50%
[11]
  pIC50: 6.00
BT-474 [12]
  inhibition in vivo at 1 mg/kg: 41%
BT-474 [13]
  inhibition in vivo at 10 mg/kg: 42%
SK-BR-3
  inhibition at 3 µM: > 80%
BT-474 [14]
  inhibition in vivo at 100 mg/kg: 83%
BT-474 [15]
  Activity: Active
BT-474 [16]
  inhibition in vivo at 30 mg/kg: 81%
CAMA-1
  pIC50: < 5.00
T47D
  pIC50: 5.62
LoVo
  inhibition in vivo at 100 mg/kg: 46%
MDA-MB-157
  pIC50: < 5.00
BT-474 [17]
  Activity: 81%
BT-474 [18]
  Activity: 61%
MDA-MB-453 [19]
  Activity: 69%
MDA-MB-231
  inhibition in vivo at 100 mg/kg: 46%
COLO 205
  inhibition in vivo at 100 mg/kg: 46%
MDA-MB-453 [20]
  inhibition in vivo at 100 mg/kg: 83%
FRE [21]
  inhibition: Active
[22]
  pIC50: 6.02
